Experimental data taken from patent publication EP0056114A1, “Pyridylamino benzoic acids, their preparation and use” (C.H. BOEHRINGER SOHN, priority 1981, dated 1982).

Tested on: Ratte
Experiment: PCA test in the rat, oral administration
Assay type: in vivo
Conditions: factor by which the ED50 is lower than that of Verbindung A (no absolute ED50 printed)

## CC(C)c1ccc(Nc2ccc(C(=O)O)cc2C(=O)O)nc1
  Fold lower ED50 than compound A (rat PCA test, oral): ca. 100 mal
